Targets include Estrogen receptor beta (Homo sapiens, UniProt Q92731); Histamine H2 receptor (Homo sapiens, UniProt P25021); Cannabinoid receptor 1 (Homo sapiens, UniProt P21554).
The target of another experiment is Mu-type opioid receptor (Homo sapiens, UniProt P35372). The experiment is described as follows: biochemical. It counts as functional.
For experiment [1], the target named is T1, Androgen receptor (Rattus norvegicus, UniProt P15207).
T1 sequence (P15207 whole entry): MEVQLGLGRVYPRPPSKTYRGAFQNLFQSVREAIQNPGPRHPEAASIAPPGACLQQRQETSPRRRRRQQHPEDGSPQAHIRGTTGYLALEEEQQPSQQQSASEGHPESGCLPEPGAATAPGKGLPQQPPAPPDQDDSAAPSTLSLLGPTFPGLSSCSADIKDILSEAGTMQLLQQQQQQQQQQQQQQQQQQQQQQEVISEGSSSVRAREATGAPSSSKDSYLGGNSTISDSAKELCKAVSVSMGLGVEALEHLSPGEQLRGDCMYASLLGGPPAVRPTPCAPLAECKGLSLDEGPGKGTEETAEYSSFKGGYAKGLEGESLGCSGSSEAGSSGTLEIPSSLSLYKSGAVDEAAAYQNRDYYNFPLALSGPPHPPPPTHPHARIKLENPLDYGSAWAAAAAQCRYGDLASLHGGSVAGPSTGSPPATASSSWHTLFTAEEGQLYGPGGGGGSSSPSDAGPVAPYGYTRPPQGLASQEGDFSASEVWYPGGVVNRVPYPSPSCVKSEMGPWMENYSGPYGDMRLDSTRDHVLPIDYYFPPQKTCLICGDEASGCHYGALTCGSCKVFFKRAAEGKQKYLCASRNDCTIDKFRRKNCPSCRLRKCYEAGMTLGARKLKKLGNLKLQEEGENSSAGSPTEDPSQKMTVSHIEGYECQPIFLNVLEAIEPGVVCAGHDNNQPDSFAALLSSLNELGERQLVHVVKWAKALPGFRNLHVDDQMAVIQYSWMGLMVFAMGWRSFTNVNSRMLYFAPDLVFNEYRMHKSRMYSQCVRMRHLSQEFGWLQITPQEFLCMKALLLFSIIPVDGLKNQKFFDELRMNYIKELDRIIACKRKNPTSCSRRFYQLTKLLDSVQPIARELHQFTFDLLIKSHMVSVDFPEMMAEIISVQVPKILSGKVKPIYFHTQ
The experiment is classed as functional.

In experiment [2] the target is 5-hydroxytryptamine receptor 2A (Homo sapiens, UniProt P28223). The experiment is classed as functional, cell-based.
5-hydroxytryptamine receptor 2A, sequence (P28223 whole entry): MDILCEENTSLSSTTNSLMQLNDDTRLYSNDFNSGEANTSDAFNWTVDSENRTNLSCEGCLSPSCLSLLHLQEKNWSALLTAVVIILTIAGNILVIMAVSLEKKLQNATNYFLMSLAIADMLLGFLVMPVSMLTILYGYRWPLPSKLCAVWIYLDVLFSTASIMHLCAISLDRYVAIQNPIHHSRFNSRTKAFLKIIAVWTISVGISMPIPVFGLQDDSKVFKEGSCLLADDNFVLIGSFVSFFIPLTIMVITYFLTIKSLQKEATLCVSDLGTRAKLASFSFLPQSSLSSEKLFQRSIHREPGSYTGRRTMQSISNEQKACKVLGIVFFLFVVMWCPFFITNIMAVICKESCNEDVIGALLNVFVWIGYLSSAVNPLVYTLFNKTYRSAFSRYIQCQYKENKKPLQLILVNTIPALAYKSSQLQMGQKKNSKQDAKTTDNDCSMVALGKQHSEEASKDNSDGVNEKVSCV
The target in experiment [3] is Beta-2 adrenergic receptor (Homo sapiens, UniProt P07550). The experiment is classed as functional, cell-based.
The target in experiment [4] is T2, Endothelin receptor type B (Homo sapiens, UniProt P24530).
T2 sequence (P24530 whole entry): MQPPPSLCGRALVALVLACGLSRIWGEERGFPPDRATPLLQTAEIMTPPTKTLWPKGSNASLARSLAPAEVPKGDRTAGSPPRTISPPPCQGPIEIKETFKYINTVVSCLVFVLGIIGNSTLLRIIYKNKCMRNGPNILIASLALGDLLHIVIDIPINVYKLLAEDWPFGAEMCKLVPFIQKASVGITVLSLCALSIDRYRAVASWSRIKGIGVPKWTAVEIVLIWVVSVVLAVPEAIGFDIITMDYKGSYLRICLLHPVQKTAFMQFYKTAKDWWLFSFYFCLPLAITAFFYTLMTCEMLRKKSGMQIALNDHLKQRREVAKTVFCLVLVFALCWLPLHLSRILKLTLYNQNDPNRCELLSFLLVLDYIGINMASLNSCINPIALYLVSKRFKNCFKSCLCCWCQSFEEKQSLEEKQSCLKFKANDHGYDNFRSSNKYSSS

The target of experiment [5] is T3, Neuropeptide Y receptor type 2 (Homo sapiens, UniProt P49146).
T3 sequence (P49146 whole entry): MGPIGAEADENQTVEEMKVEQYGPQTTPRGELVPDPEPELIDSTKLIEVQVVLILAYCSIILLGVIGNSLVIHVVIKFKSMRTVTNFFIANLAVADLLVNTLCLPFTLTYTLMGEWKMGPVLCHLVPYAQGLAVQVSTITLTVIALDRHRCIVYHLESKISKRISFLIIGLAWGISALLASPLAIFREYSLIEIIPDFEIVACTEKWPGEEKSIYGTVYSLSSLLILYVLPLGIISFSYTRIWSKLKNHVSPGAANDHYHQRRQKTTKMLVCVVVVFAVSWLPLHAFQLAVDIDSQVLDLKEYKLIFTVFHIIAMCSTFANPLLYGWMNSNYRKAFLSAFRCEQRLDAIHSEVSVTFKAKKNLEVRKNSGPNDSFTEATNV

Experiment [6] concerns the target Voltage-dependent N-type calcium channel subunit alpha-1B (Rattus norvegicus, UniProt Q02294). The experiment is classed as functional.
Experiment [7] has as its target Neurotensin receptor type 1 (Homo sapiens, UniProt P30989).
The target in experiment [8] is T4, Muscarinic acetylcholine receptor M2 (Homo sapiens, UniProt P08172).
T4 sequence (P08172 whole entry): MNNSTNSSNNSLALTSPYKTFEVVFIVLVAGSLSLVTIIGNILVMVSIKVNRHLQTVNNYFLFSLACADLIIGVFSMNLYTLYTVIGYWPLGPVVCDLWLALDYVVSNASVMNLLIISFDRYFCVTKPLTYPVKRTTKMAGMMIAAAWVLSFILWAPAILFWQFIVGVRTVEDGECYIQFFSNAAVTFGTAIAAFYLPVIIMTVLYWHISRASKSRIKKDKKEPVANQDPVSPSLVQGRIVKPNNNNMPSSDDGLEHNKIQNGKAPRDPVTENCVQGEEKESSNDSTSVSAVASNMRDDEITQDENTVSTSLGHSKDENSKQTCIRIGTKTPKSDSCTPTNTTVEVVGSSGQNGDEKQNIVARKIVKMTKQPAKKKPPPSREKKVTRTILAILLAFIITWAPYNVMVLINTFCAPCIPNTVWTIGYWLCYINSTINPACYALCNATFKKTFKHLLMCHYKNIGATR

For experiment [9], the target named is Beta-3 adrenergic receptor (Homo sapiens, UniProt P13945).
Beta-3 adrenergic receptor, sequence (P13945 whole entry): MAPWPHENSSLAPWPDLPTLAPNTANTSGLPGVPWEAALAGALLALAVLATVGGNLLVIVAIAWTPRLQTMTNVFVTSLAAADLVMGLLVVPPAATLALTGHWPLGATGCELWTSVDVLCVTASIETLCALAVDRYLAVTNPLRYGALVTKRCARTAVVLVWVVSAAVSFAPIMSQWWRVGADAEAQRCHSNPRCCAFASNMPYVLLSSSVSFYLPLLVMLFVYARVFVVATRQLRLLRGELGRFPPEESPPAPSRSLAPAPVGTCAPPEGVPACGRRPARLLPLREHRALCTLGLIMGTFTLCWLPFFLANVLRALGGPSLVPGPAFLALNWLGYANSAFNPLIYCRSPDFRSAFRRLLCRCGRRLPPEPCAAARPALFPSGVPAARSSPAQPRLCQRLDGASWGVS
In experiment [10] the target is T1, Androgen receptor.

Where only a bound is given, the exact number is not on record here.
Note: assay procedure not described here.

Estrogen receptor beta, sequence (Q92731 whole entry): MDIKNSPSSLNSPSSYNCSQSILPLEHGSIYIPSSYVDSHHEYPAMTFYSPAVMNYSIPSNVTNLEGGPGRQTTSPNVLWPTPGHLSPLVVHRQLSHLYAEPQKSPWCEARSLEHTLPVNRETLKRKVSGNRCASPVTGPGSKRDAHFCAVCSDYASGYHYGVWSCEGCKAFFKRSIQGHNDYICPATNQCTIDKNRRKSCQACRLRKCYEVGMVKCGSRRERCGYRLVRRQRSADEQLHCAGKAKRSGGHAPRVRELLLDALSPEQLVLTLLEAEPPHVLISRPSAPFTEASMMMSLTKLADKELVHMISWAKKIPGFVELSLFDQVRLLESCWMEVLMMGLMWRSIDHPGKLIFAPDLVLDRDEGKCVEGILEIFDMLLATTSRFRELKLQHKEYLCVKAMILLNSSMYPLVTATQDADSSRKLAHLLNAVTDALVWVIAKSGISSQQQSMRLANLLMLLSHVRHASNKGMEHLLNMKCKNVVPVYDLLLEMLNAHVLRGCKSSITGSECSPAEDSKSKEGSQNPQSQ
Histamine H2 receptor, sequence (P25021 whole entry): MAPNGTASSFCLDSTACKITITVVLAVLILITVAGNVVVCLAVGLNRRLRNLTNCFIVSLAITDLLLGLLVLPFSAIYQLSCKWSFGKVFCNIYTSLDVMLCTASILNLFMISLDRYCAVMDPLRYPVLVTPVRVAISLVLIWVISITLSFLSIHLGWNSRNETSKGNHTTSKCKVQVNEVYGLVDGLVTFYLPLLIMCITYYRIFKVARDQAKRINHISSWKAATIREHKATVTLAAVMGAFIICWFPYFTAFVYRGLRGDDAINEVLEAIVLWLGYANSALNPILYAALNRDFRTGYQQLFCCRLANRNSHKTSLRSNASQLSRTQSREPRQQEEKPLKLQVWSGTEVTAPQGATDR
Voltage-dependent N-type calcium channel subunit alpha-1B, sequence (Q02294 whole entry): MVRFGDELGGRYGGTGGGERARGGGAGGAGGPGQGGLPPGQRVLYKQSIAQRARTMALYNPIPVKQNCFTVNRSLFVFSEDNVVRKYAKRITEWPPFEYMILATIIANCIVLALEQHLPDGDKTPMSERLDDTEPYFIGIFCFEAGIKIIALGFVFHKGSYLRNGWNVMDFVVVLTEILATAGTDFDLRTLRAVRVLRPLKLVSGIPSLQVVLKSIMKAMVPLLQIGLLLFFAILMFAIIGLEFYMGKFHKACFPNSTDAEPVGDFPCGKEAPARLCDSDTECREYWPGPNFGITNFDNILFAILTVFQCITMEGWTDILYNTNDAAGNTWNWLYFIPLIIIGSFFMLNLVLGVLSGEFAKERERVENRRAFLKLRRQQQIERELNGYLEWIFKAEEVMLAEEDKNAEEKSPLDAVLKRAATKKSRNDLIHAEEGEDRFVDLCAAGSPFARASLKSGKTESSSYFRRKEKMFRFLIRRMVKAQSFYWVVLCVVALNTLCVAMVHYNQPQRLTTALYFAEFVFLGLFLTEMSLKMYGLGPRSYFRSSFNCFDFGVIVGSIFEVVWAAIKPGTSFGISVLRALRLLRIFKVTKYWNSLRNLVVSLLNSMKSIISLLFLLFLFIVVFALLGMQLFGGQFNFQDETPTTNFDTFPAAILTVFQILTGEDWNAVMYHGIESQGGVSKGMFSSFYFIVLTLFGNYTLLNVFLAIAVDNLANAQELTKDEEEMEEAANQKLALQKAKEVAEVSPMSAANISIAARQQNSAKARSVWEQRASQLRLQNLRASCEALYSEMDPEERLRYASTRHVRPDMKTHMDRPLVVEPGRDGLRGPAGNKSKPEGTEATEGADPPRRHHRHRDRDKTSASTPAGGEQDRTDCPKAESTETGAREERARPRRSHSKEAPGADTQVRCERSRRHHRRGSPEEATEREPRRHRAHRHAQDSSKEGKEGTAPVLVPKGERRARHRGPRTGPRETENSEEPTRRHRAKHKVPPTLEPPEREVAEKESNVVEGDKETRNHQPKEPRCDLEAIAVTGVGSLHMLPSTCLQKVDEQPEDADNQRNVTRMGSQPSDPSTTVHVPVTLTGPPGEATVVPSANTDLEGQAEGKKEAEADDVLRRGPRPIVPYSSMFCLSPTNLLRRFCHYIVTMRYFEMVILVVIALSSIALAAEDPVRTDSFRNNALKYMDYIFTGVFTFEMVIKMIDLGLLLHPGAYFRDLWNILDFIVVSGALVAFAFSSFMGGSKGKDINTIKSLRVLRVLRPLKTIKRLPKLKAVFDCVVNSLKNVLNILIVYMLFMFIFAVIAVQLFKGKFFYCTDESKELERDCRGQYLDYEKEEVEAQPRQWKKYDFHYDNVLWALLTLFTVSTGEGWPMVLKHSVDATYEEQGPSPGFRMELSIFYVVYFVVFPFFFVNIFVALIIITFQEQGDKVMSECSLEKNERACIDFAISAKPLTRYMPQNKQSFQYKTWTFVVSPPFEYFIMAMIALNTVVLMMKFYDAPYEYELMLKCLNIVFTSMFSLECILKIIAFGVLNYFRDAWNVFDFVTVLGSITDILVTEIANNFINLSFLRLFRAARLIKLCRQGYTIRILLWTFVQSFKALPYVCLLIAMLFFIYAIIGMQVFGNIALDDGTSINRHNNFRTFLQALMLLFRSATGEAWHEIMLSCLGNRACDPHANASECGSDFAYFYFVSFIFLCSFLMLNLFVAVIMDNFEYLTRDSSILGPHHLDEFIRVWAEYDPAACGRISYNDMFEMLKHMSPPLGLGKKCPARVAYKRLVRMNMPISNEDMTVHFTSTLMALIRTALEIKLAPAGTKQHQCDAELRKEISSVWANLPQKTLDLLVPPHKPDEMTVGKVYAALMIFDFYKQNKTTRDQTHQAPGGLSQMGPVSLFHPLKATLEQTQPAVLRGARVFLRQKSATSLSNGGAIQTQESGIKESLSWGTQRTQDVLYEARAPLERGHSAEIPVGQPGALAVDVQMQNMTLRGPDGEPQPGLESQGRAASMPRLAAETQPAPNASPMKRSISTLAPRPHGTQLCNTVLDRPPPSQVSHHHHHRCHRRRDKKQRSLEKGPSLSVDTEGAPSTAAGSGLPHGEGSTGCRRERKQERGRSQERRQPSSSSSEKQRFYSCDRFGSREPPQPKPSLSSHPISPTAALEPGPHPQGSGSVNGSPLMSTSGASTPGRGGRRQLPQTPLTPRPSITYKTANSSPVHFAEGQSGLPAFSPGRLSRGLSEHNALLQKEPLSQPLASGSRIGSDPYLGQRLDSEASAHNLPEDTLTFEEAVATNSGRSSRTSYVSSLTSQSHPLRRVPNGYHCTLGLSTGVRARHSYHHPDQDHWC
Neurotensin receptor type 1, sequence (P30989 whole entry): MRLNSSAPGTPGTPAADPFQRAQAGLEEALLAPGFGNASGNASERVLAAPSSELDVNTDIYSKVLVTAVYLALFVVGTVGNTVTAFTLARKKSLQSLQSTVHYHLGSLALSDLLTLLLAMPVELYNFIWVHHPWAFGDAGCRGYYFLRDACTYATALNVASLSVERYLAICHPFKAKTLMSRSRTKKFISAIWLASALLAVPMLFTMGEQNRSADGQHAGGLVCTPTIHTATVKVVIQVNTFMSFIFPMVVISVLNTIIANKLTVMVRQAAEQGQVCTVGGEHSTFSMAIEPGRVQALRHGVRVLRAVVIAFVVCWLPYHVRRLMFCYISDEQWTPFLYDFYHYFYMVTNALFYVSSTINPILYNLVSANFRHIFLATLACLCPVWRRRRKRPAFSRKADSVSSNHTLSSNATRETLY
Cannabinoid receptor 1, sequence (P21554 whole entry): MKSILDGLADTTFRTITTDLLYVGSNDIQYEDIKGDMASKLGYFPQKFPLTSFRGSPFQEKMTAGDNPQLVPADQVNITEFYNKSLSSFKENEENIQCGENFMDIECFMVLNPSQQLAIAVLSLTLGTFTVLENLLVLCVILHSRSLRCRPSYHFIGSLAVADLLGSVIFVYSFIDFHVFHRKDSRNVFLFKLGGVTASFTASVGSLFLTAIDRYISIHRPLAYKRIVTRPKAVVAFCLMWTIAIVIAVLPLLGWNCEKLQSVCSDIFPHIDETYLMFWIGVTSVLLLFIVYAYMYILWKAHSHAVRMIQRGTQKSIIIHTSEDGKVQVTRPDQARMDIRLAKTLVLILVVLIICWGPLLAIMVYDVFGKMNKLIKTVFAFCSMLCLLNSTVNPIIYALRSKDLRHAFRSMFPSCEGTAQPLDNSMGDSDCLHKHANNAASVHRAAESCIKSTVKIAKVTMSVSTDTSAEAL

By AC50 is commonly meant the concentration at which the activity in the assay is half-maximal. Regarding `CC(=O)Oc1cccc2c1C(=O)c1c(OC(C)=O)cc(C(=O)O)cc1C2=O` [DIACEREIN], the AC50 on Mu-type opioid receptor was above 30 µM; at Androgen receptor [1], above 10 µM; in [2] it was 18 µM.
Taken in the same sequence, the figures for `CCCO[C@H]1[C@@H]([C@@H](COCc2ccc(Cl)cc2)OCc2ccc(Cl)cc2)OC(OCC)[C@@H]1O` (some centres not stated) [CLOBENOSIDE] were above 30 µM, above 30 µM and above 30 µM.
`COc1ccc(-n2nc(C(N)=O)c3c2C(=O)N(c2ccc(N4CCCCC4=O)cc2)CC3)cc1` [APIXABAN]: the AC50 (on Androgen receptor [1]; in experiment [3]) was above 30 µM each time.
Regarding `CC(NC(C)(C)C)C(=O)c1cccc(Cl)c1` (configuration not stated) [BUPROPION], the AC50 in experiment [4] is above 30 µM; on Estrogen receptor beta, above 30 µM; in experiment [5], above 30 µM; in experiment [6], above 10 µM; in experiment [7], above 30 µM; on Histamine H2 receptor it was above 10 µM. Also, the AC50 in [3] is above 30 µM; in [8], above 10 µM; on Cannabinoid receptor 1, above 10 µM; in [9], above 30 µM.
For the compound `CN1C2CCCC1CC(NC(=O)c1nn(C)c3ccccc13)C2` (configuration not stated) [GRANISETRON], the AC50 is above 30 µM in experiment [4]; above 30 µM on Estrogen receptor beta; above 30 µM in [5]; above 10 µM in experiment [6]; above 30 µM in experiment [7]; above 10 µM on Histamine H2 receptor. For the same compound, the AC50 is above 30 µM in [3], above 10 µM in experiment [8], above 10 µM on Cannabinoid receptor 1 and above 30 µM in [9].
Take `CN1C(=O)CN=C(c2ccccc2F)c2cc([N+](=O)[O-])ccc21` [FLUNITRAZEPAM]: the half-maximal activity concentration (AC50) is above 30 µM in [4]; above 30 µM at Estrogen receptor beta; above 30 µM in [5]; above 10 µM in experiment [6]; above 30 µM at Androgen receptor [10]; above 30 µM in experiment [7]. Besides, the AC50 on Histamine H2 receptor was above 10 µM; in [8] it was above 10 µM; on Cannabinoid receptor 1, above 10 µM; in experiment [9], above 30 µM.
Consider `Cc1ccc(-c2ncc(Cl)cc2-c2ccc(S(C)(=O)=O)cc2)cn1` [ETORICOXIB], for which the AC50 in experiment [4] was above 30 µM; on Estrogen receptor beta it was above 30 µM; in experiment [5] it was above 30 µM; in experiment [6] it was above 10 µM; at Androgen receptor [10], above 30 µM; in [7] it was above 30 µM. The concentration at half-maximal activity (AC50) on Histamine H2 receptor was above 10 µM; in experiment [3], above 30 µM; in experiment [2] it was above 30 µM; in experiment [8], above 10 µM; on Cannabinoid receptor 1, above 10 µM; in [9] it was above 30 µM.
For `Oc1cc(O)c2c(c1)O[C@H](c1ccc(O)c(O)c1)[C@@H](O)C2` [CIANIDANOL], the AC50 was above 30 µM in experiment [4]; above 30 µM at Estrogen receptor beta; above 30 µM in experiment [5]; above 10 µM in [6]; above 30 µM in experiment [7]; above 10 µM at Histamine H2 receptor. Moreover, the concentration at half-maximal activity (AC50) was above 30 µM in [3]; above 30 µM in [2]; above 10 µM in [8]; above 10 µM on Cannabinoid receptor 1; above 30 µM in experiment [9].
Take `Cc1nnc2n1-c1ccc(Cl)cc1C(c1ccccc1)=NC2` [ALPRAZOLAM]: the AC50 in experiment [4] is above 30 µM; at Estrogen receptor beta it was above 30 µM; in [5], above 30 µM; in experiment [6], above 10 µM; in experiment [7], above 30 µM; at Histamine H2 receptor it was above 10 µM. Moreover, the half-maximal activity concentration (AC50) is above 30 µM in experiment [3], above 10 µM in experiment [8], 3.35 µM on Cannabinoid receptor 1 and above 30 µM in experiment [9].
For the compound `O=C1CN=C(c2ccccc2Cl)c2cc([N+](=O)[O-])ccc2N1` [CLONAZEPAM], the half-maximal activity concentration (AC50) in [4] was above 30 µM; on Estrogen receptor beta, above 30 µM; in experiment [5] it was above 30 µM; in [6] it was above 10 µM; on Androgen receptor [10] it was above 30 µM; in [7] it was above 30 µM. Moreover, the AC50 at Histamine H2 receptor was above 10 µM; in [3], above 30 µM; in [8], above 10 µM; on Cannabinoid receptor 1, above 10 µM; in experiment [9], above 30 µM.

Source of the values: ChEMBL document CHEMBL5291721, “A preclinical secondary pharmacology resource illuminates target-adverse drug reaction associations of marketed drugs” (Nat Commun, 2023).
